Assay [1] deals with EP4 subtype of the human PGE2 receptor (hEP4) (Homo sapiens, UniProt P35408). Nature of the assay: cAMP antagonism test, human prostaglandin E2 (subtype EP4) receptor signal. The class given is cell-based. The following applies: selectivity towards hEP4, IC50 measured by cAMP antagonism test. From the text: 2. Detection of Antagonism to the Human Prostaglandin E2 (Subtype EP4) Receptor Signal
The binding of PGE2 to the EP4 subtype of the human PGE2 receptor induces the activation of membrane-located adenylate cyclases and leads to the formation of cAMP. In the presence of the phosphodiesterase inhibitor IBMX, the cAMP accumulated owing to this stimulation and released by cell lysis is used in a competitive detection method. In this test, the cAMP present in the lysate competes with a fluorescence-labelled cAMP (cAMP-d2) for binding to an Eu cryptate-labelled anti-cAMP antibody.
(§1) In the absence of cellular cAMP a maximal signal is produced, which is attributable to the binding of this cAMP-d2 molecule to the antibody. After excitation of the […] at 337 nm, there is a fluorescence resonance energy transfer (FRET) to the Eu cryptate molecules of the anti-cAMP antibody (labelled therewith), followed by a long-lasting emission signal at 665 nm (and at […]). Both signals are measured in a suitable measurement instrument with a time delay, i.e. after decay of the background fluorescence. Any increase in the low FRET signal caused by prostaglandin E2 administration (measured as well ratio change=emission665nm/emission620nm*10000) indicates the action of antagonists.
2.2.1. Test for Antagonism (Data Per Well of a 384-Well Plate):
To a test plate with the substance solutions already added (0.05 μl; 100% DMSO, concentration range from 0.8 nM-16.5 uM) were added 4 μl of a cAMP-d2/cell suspension (312500 cells/ml). After a 20-minute preincubation at room temperature (RT), 2 μl of a 3×PGE2 solution (0.3 nM, in PBS-IBMX) were added and incubated in the presence of the agonist for a further 60 mins at RT (volume: ˜6 μl). Next the reaction was stopped by addition of 2 μl of lysis buffer and incubated for a further 20 mins at RT before the actual measurement (volume: ˜8 μl).

The next assay addresses T1, human PGD receptor (hDP) (Homo sapiens, UniProt Q13258).
T1 sequence (Q13258 1-359): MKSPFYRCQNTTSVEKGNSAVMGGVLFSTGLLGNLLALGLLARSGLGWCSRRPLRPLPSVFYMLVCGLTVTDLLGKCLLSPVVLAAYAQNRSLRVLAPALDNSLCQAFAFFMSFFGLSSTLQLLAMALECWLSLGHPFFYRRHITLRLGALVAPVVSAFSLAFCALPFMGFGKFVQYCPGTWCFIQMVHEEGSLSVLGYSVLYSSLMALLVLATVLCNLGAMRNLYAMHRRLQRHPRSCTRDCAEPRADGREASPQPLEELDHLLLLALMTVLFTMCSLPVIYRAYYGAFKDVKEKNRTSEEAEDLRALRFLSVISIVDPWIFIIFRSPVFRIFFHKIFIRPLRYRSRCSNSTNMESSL
The assay is described as follows: cAMP antagonism test, human prostaglandin D receptor signal. It is filed as cell-based. The following applies: selectivity towards hDP, IC50 measured by cAMP antagonism test.
Excerpt: 3. Detection of Antagonism to the Human Prostaglandin D Receptor Signal
The binding of prostaglandin D2 to the human PGD receptor induces the activation of membrane-located adenylate cyclases and leads to the formation of cAMP. In the presence of the phosphodiesterase inhibitor IBMX, the cAMP accumulated owing to this stimulation and released by cell lysis is used in a competitive detection method. In this test, the cAMP present in the lysate competes with a fluorescence-labelled cAMP (cAMP-d2) for binding to an Eu cryptate-labelled anti-cAMP antibody.
as §1, with “cellular cAMP,” for “cellular cAMP”
3.2.1. Test for Antagonism (Data Per Well of a 384-Well Plate):
To a test plate with the substance solutions already added (0.05 μl; 100% DMSO, concentration range from 0.8 nM-16.5 nM) were added 4 μl of a cAMP-d2/cell suspension (625000 cells/ml). After a 20-minute preincubation at room temperature (RT), 2 μl of a 3×PGD2 solution (6 nM, in PBS-IBMX) were added and incubated in the presence of the agonist for a further 30 mins at RT (volume: ˜6 μl). Next the reaction was stopped by addition of 2 μl of lysis buffer and incubated for a further 20 mins at RT before the actual measurement (volume: ˜8 μl).

Another assay has as its system ovulation. The following applies: cited from earlier work.

The structures appear in SMILES notation.

EP4 subtype of the human PGE2 receptor (hEP4), sequence (P35408 whole entry): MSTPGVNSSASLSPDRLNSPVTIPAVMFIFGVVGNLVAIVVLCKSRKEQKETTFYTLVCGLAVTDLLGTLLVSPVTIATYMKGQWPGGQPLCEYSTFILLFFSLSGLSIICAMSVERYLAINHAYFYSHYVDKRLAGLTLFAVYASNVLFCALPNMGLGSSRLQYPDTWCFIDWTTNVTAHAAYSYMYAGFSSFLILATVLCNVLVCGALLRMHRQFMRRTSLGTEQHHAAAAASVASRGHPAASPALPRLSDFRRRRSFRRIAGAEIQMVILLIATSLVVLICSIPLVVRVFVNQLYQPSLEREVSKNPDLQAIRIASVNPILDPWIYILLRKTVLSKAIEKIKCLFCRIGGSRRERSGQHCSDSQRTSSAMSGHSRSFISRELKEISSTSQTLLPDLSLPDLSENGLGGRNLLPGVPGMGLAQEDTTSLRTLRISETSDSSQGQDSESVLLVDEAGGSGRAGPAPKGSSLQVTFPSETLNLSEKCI

As for `Cc1c(C(=O)NCC2COCCO2)ccc2nn(CC3CN(C(=O)c4ccc(Cl)cc4)C3)cc12` (single isomer, unassigned) [Example 143, (S or R)-2-{[1-(4-chlorobenzoyl)azetidin-3-yl]methyl}-N-(1,4-dioxan-2-yl-methyl)-4-methyl-2H-indazole-5-carboxamide], the “Selectivity hEP2/hEP4” value in assay [1] is listed as “xxx (xxx >100)”. In addition, on human PGD receptor (hDP), the “Selectivity hEP2/hDP” value is “xxx (xxx >100)”.

As for `Cc1c(C(=O)NCC2CCCCO2)ccc2nn(CC3CN(C(=O)c4ccc(Cl)cc4)C3)cc12` (single isomer, unassigned) [Example 145, (R or S)-2-{[1-(4-chlorobenzoyl)azetidin-3-yl]methyl}-4-methyl-N-(3,4,5,6-tetrahydro-2H-pyran-2-ylmethyl)-2H-indazole-5-carboxamide], in assay [1], the “Selectivity hEP2/hEP4” value is given as “xxx (xxx >100)”. The “Selectivity hEP2/hDP” value at human PGD receptor (hDP) is “xxx (xxx >100)”.

On to `Cc1c(C(=O)NCC2CCCCO2)ccc2nn(CC3CN(C(=O)c4ccc(Cl)cc4)C3)cc12` (single isomer, unassigned) [Example 146, (S or R)-2-{[1-(4-chlorobenzoyl)azetidin-3-yl]methyl}-4-methyl-N-(3,4,5,6-tetrahydro-2H-pyran-2-ylmethyl)-2H-indazole-5-carboxamide], for which the “Selectivity hEP2/hEP4” value in assay [1] is “xxx (xxx >100)”. The “Selectivity hEP2/hDP” value on human PGD receptor (hDP) is reported as “xxx (xxx >100)”.

In the case of `Cc1c(C(=O)NCC(C)OC2CCC2)ccc2nn(CC3CN(C(=O)c4ccc(Cl)cc4)C3)cc12` (single isomer, unassigned) [Example 155, (S or R)-2-{[1-(4-chlorobenzoyl)azetidin-3-yl]methyl}-N-[2-(cyclobutyloxy)-propyl]-4-methyl-2H-indazole-5-carboxamide], the “Selectivity hEP2/hEP4” value in assay [1] is recorded as “xxx (xxx >100)”. For the same compound, at human PGD receptor (hDP), the “Selectivity hEP2/hDP” value is “xxx (xxx >100)”.

Turning to `Cc1c(C(=O)NCC2CCCCO2)ccc2nn(CC3CCN(C(=O)c4ccc(Cl)cc4)CC3)cc12` (single isomer, unassigned) [Example 240, (R or S)-2-{[1-(4-chlorobenzoyl)piperidin-4-yl]methyl}-4-methyl-N-(3,4,5,6-tetrahydro-2H-pyran-2-ylmethyl)-2H-indazole-5-carboxamide], the “Selectivity hEP2/hEP4” value in assay [1] is “xxx (xxx >100)”. Besides, the “Selectivity hEP2/hDP” value at human PGD receptor (hDP) was “xxx (xxx >100)”.

Take `Cc1c(C(=O)NCC2CCCCO2)ccc2nn(CC3CCN(C(=O)c4ccc(Cl)cc4)CC3)cc12` (single isomer, unassigned) [Example 241, (S or R)-2-{[1-(4-chlorobenzoyl)piperidin-4-yl]methyl}-4-methyl-N-(3,4,5,6-tetrahydro-2H-pyran-2-ylmethyl)-2H-indazole-5-carboxamide]: in assay [1], the “Selectivity hEP2/hEP4” value is given as “xxx (xxx >100)”. The “Selectivity hEP2/hDP” value on human PGD receptor (hDP) is reported as “xxx (xxx >100)”.

Take `Cc1c(C(=O)NCC2COCCO2)ccc2nn(CC3CCN(C(=O)c4ccc(Cl)cc4)CC3)cc12` (single isomer, unassigned) [Example 415, (S or R)-2-{[1-(4-chlorobenzoyl)piperidin-4-yl]methyl}-N-(1,4-dioxan-2-yl-methyl)-4-methyl-2H-indazole-5-carboxamide]: the “Selectivity hEP2/hEP4” value in assay [1] is on record as “xxx (xxx >100)”. For the same compound, on human PGD receptor (hDP), the “Selectivity hEP2/hDP” value is “xxx (xxx >100)”.

For `Cc1c(C(=O)NCC2CCCCO2)ccc2nn(CC3CCN(C(=O)c4ccc(Oc5ccc(C(F)(F)F)cc5)cc4)CC3)cc12` (single isomer, unassigned) [Example 416, (R or S)-4-methyl-N-(3,4,5,6-tetrahydro-2H-pyran-2-ylmethyl)-2-[(1-{4-[4-(trifluoromethyl)phenoxy]benzoyl}piperidin-4-yl)methyl]-2H-indazole-5-carboxamide], the “Selectivity hEP2/hEP4” value in assay [1] is reported as “xxx (xxx >100)”. The “Selectivity hEP2/hDP” value on human PGD receptor (hDP) is “xxx (xxx >100)”.

For the compound `Cc1c(C(=O)NCC2CCCCO2)ccc2nn(CC3CCN(C(=O)c4ccc(Oc5ccc(C(F)(F)F)cc5)cc4)CC3)cc12` (single isomer, unassigned) [Example 417, (S or R)-4-methyl-N-(3,4,5,6-tetrahydro-2H-pyran-2-ylmethyl)-2-[(1-{4-[4-(trifluoromethyl)phenoxy]benzoyl}piperidin-4-yl)methyl]-2H-indazole-5-carboxamide], the “Selectivity hEP2/hEP4” value in assay [1] is “xxx (xxx >100)”. Moreover, the “Selectivity hEP2/hDP” value at human PGD receptor (hDP) is on record as “xxx (xxx >100)”.

With `Cc1c(C(=O)NCC2COCCO2)ccc2nn(CC3CCN(C(=O)c4ccc(Oc5ccc(C(F)(F)F)cc5)cc4)CC3)cc12` (single isomer, unassigned) [Example 418, (R or S)—N-(1,4-dioxan-2-ylmethyl)-4-methyl-2-[(1-{4-[4-(trifluoromethyl)-phenoxy]benzoyl}piperidin-4-yl)methyl]-2H-indazole-5-carboxamide], the “Selectivity hEP2/hEP4” value in assay [1] is “xxx (xxx >100)”. For the same compound, the “Selectivity hEP2/hDP” value on human PGD receptor (hDP) is “xxx (xxx >100)”.

With `Cc1c(C(=O)NCC2COCCO2)ccc2nn(CC3CCN(C(=O)c4ccc(Oc5ccc(C(F)(F)F)cc5)cc4)CC3)cc12` (single isomer, unassigned) [Example 419, (R or S)—N-(1,4-dioxan-2-ylmethyl)-4-methyl-2-[(1-{4-[4-(trifluoromethyl)-phenoxy]benzoyl}piperidin-4-yl)methyl]-2H-indazole-5-carboxamide], in assay [1], the “Selectivity hEP2/hEP4” value is “xxx (xxx >100)”. Also, the “Selectivity hEP2/hDP” value at human PGD receptor (hDP) was “xxx (xxx >100)”.

Turning to `Cc1ccc(-c2cc(C(F)(F)F)nn2-c2ccc(S(N)(=O)=O)cc2)cc1` [celecoxib, 4-[5-(4-methylphenyl)-3-(trifluoromethyl)-1H-pyrazol-1-yl]benzenesulphonamide], the cycle length in the assay with ovulation (daily administration of 400 mg over the entire cycle, increased from 27.2+/−2.4 days (Edelmann et al. 2010)) is 28.5 ± 2.5 days. Further, in the assay with ovulation (daily oral administration of 400 mg, depending on time and duration of administration (Edelmann et al. 2013)), the “increase in ovulatory dysfunction” value is 25-30%.

Consider `CS(=O)(=O)c1ccc(C2=C(c3ccccc3)C(=O)OC2)cc1` [rofecoxib, 4-(4-mesylphenyl)-3-phenylfuran-2(5H)-one], for which, in the assay on ovulation (25 mg on 9 successive days, in 4 of 6 patients (Pall et al.)), the delay of ovulation result is reported as “more than 48 hours”.
